First: CCCC(=O)N[C@@H]1CCc2cccc(N3CCN(C)CC3)c2C1
Second: CN(C)C(=O)CCCOc1ccc2c(c1)C[C@@H](NC(=O)OC(C)(C)C)CC2
The melting point of the first is higher: 131 to 132 °C for the first, 97 to 101 °C for the second.

First: N#Cc1cc(Cl)nc(SCc2ccc3ccccc3c2)n1
Second: CC(C)(C)OC(=O)CCc1cc(C#N)nc(-c2nc(=O)c3ccccc3s2)c1
The melting point of the first is lower: 120 to 121 °C for the first, 190 to 191 °C for the second.

First: COC(CN(C)C(=O)Nc1nnc(C(C)Oc2cccc(Cl)c2)s1)OC (stereo unspecified)
Second: COC(=O)C1=C(C)Nc2ccnc(OC(C)C)c2C1c1c(Cl)cccc1Cl (stereo unspecified)
The melting point of the first is lower: 127 to 130 °C for the first, 245 °C for the second.

Compared with O=C(O)CCCCCCCCCCCOC(=O)OCC(Cl)(Cl)Cl, COc1ccc(C(C)=O)c(OCCCC(=O)O)c1 is higher in melting point: 44.6 to 46.4 °C for the first, 127 to 129 °C for the second.

First: O=C1OCCC1Oc1ccc(C(F)(F)F)cc1[N+](=O)[O-] (stereo unspecified)
Second: N#Cc1cc([N+](=O)[O-])ccc1OC1CCCCC1
The melting point of the first is higher: 128 to 129 °C for the first, 97 to 98 °C for the second.

Compared with CN1C2CCC1CN(c1ccc3cc([N+](=O)[O-])ccc3n1)C2, Cc1ccc([N+](=O)[O-])cc1-c1cn(C)cc(-c2ccccc2)c1=O is higher in melting point: 152 to 154 °C for the first, 185 to 187 °C for the second.

First: CCn1cc2c(n1)c(N)nc1ccccc12
Second: CCS(=O)(=O)c1cccc(-c2nc(=O)c3ccccc3s2)n1
The melting point of the first is higher: 240 to 241 °C for the first, 202 to 203 °C for the second.

First: COCc1cc2c(C(=O)Nc3c(C)noc3C)ccc(OC)c2o1
Second: CCOC(=O)c1cnc2c(OC)nc(OC)cc2c1Cl
The melting point of the first is lower: 168 to 170 °C for the first, 200 to 210 °C for the second.

First: CCCCCCSc1ssc(=S)c1-c1cc(C(C)(C)C)c(O)c(C(C)(C)C)c1
Second: CNC(=O)NS(=O)(=O)c1cc(CCNC(=O)c2cc(C(C)(C)C)ccc2OC)ccc1OC
The melting point of the first is lower: 110 °C for the first, 209 to 212 °C for the second.

Compared with CCn1c(=O)[nH]c(=O)c2c(-c3ccc(F)cc3)c(/C=C/C=O)c(C3CC3)nc21, CCOC(=O)c1c(C2CC2)nn(CC)c1Cc1ccc(-c2ccccc2S(N)(=O)=O)cc1 is lower in melting point: 236 °C for the first, 54 to 58 °C for the second.

First: Nc1c(F)c(N2CCC(=NO)C2)c(F)c2c1c(=O)c(C(=O)O)cn2C1CC1
Second: CC(=O)NCC1CN(c2ccc(N3CCC(=C(C)C#N)C(F)C3)c(F)c2)C(=O)O1 (stereo unspecified)
The melting point of the first is higher: 273 to 276 °C for the first, 148 to 150 °C for the second.

Compared with CC1CC=CC2C(=O)OC(=O)C12 (stereo unspecified), CC1CCN(c2cc(C(C)(C)C)on2)C1=O (stereo unspecified) is higher in melting point: 55 °C for the first, 89 to 90 °C for the second.

First: Cc1nc(CN2C(=O)C3(COc4cc5c(cc43)OCO5)c3ccccc32)c(C(F)(F)F)o1 (stereo unspecified)
Second: Cc1[nH]c(C=O)c2c1-c1ccc(Cl)cc1C(c1ccccc1Cl)=NC2
The melting point of the first is lower: 136 to 137 °C for the first, 274 to 276 °C for the second.

First: COc1cc(CCC(=O)c2c(O)cc(O)c(CCC(C)C)c2O)cc(OC)c1O
Second: COc1cc2c(=O)n(CCCn3ccnc3)c3c4ccccc4[nH]c(=O)c3c2cc1OC
The melting point of the first is lower: 166 to 167 °C for the first, 288 to 290 °C for the second.

Compared with O=S(=O)(c1ccccc1)c1cc(Br)nc(Br)c1, COc1cc(OC)nc(NC(=O)NS(=O)(=O)c2ccccc2-c2cnoc2)n1 is higher in melting point: 134 to 135 °C for the first, 175 to 178 °C for the second.

First: Cc1c(Cc2nc3n(-c4c(Cl)cc(Cl)cc4Cl)[nH]c(C(C)C)c-3c(=O)n2)cccc1NC(=O)CCl
Second: Cc1cc(CNC(=O)c2sc(N3C[C@@H](C)N(Cc4ccc(F)cc4)C3=O)nc2C)no1
The melting point of the first is higher: 237 to 238 °C for the first, 139 to 140 °C for the second.

Compared with Nc1ccccc1NS(=O)(=O)c1cc(C(=O)O)cc(NCc2ccccc2)c1Oc1ccccc1, CN(C)CCNc1ccc(NCCCCC(=O)NOCc2ccccc2)c2c1C(=O)c1ccccc1C2=O is higher in melting point: 113 to 116 °C for the first, 146 to 148 °C for the second.

First: N#Cc1cnn2c1N(C(=O)CI)CC=C2c1cccc(C(F)(F)F)c1
Second: O=C(CN1CCN(c2ncccn2)CC1)c1ccc(-c2cccc(C(F)(F)F)c2)nc1
The melting point of the first is higher: 158 to 160 °C for the first, 124 to 126 °C for the second.

Compared with c1ccc2c(c1)CCONC2, O=C1CN(c2ccccc2)C(=O)N1C1CCCCC1 is higher in melting point: 190 to 192 °C for the first, 196 °C for the second.

Compared with COc1ccc(S(=O)(=O)N2c3ccccc3-c3ccccc3C2C)cc1OC (stereo unspecified), O=C1c2ccccc2C(=O)N1CC(=O)N1c2ccccc2N(c2ccccc2)C(=O)C2CCCC21 (stereo unspecified) is higher in melting point: 131 to 133 °C for the first, 272 to 273 °C for the second.

First: CCc1c([N+](=O)[O-])ccc2cc[nH]c12
Second: Oc1ccnc(Nc2cccc(Cl)c2)n1
The melting point of the first is lower: 50 °C for the first, 250 to 252 °C for the second.

First: COC(=O)c1ccc(-c2cc(-c3ccc(C(F)(F)F)cc3)on2)cc1
Second: CS(=O)(=O)c1ccc(-n2nc(C(F)(F)F)cc2-c2ccc(-c3cocn3)cc2)cc1F
The melting point of the first is higher: 183 to 184 °C for the first, 164 to 166 °C for the second.

Going from CSc1sc(C(N)=O)c2c1-c1sc(C(N)=O)cc1CC2 to CCOC(=O)c1oc2ccc(CSC)c(O)c2c1C, the melting point falls from > 300 °C to 101 °C.

Compared with C[C@@H](Oc1c(Br)cc(-c2c3ccccc3c(Br)c3sc4ccccc4c23)cc1Br)C(=O)O, Cc1cccc(C(=O)O)c1NC(=S)Cc1ccccc1 is higher in melting point: 131 to 133 °C for the first, 148 to 150 °C for the second.

First: COc1c(C)cc(C)c2c1C(=O)C1CCCCC21 (stereo unspecified)
Second: Cc1ncncc1C(=O)Nc1ccc(-n2nc(C3CC3)cc2C2CC2)cc1
The melting point of the first is lower: 72 to 74 °C for the first, 89 to 95 °C for the second.

First: CNC(=C[N+](=O)[O-])NCCc1nnc(NCCCOc2cccc(CN3CCCCC3)c2)n1C
Second: Cn1c(=O)c2c(ncn2CCCN2CCC(NC(=O)c3ccc(N)cc3)CC2)n(C)c1=O
The melting point of the first is lower: 110 to 112 °C for the first, 203 to 205 °C for the second.

First: CCCOc1ccc(-c2ccc3c(c2)C=C(C(=O)Nc2ccc(CN(C)C4CCOCC4)cc2)CCS3(=O)=O)cc1OCCC
Second: CCCCCn1c2c(c3ccc(OC)cc31)CN(S(=O)(=O)c1cccc3c(N(C)C)cccc13)CC2
The melting point of the first is higher: 206 to 208 °C for the first, 71 to 72 °C for the second.

Compared with CCOC(Cc1ccc(OCCN(C)c2nc3ccccc3o2)cc1)c1nc(C)no1 (stereo unspecified), CCN(Cc1ccccc1)C(=O)Cc1c(-c2ccc(Cl)cc2)nc2cc(C)ccn12 is higher in melting point: 61 to 62 °C for the first, 192 to 193 °C for the second.

Compared with C=CCc1c(O)ccc2c1C(CCNC(=O)CC)CN2C=O (stereo unspecified), Cc1c(C)c2c(c(C)c1NC(=O)NCCCCO)C(c1ccc(C(C)C)cc1)CO2 (stereo unspecified) is lower in melting point: 173 to 175 °C for the first, 145 to 146 °C for the second.

Compared with COc1cccc2c1C(=O)C(Br)=C(Br)C2=O, CC1(C)CCc2c(ccc3c2C(=O)C=C(O)C3=O)O1 is lower in melting point: 190 °C for the first, 184 to 187 °C for the second.

First: COc1cc2c(Nc3ccc(Sc4ccccn4)c(Cl)c3)c(C#N)cnc2cc1F
Second: FC(F)C(F)(F)Oc1cccc(Nc2nccc(-c3cncc4ccccc34)n2)c1
The melting point of the first is higher: 225 to 228 °C for the first, 158 to 160 °C for the second.

First: COC(=O)CCc1ccc(C(=O)O)cc1
Second: C=CC(=O)OCCOc1ccc(-c2cccc(F)c2F)cc1
The melting point of the first is higher: 146 to 148 °C for the first, 47.4 to 50.1 °C for the second.

First: CC(=O)OC1(C(C)=O)C(C)CC2C3CC(C)C4=CC(=O)C=CC4(C)C3C(O)CC21C (stereo unspecified)
Second: O=C(O)c1cc(Cl)cc(I)c1O
The melting point of the first is higher: 270 to 272 °C for the first, 160 to 163 °C for the second.

First: CS(=O)(=O)c1ccc(-n2cnc(Cl)c2-c2ccc(Cl)nc2)cc1
Second: O=C1Nc2ccccc2OC1c1ccccc1 (stereo unspecified)
The melting point of the first is higher: 223 °C for the first, 146 °C for the second.

First: FC(F)(F)Cn1cc(C#Cc2cccc(Br)c2)cn1
Second: CCNC1=NS(=O)N=C1NCCSCc1ccc(CN(C)C)o1 (stereo unspecified)
The melting point of the first is higher: 107 to 109 °C for the first, 68 to 74 °C for the second.

OC1C2CCN(CC2)C1CN1CCCCC1 (stereo unspecified) showed a melting point of 130 to 131 °C.

Reference: a melting point compilation (Tetko et al.; mined from patent text by program, amines drawn as free bases though some values may be those of a salt)
